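Growth conditions: 96-well plates. Treatment: test compound, 48 hours, 5 concentrations. Analysis: linear interpolation between bracketing concentrations; unreached endpoints set to highest concentration. GI50 marks 50% less growth. At the TGI there is no net growth.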
Experiments:
Assay in all cases: inhibition of tumour cell growth, NCI panel, 48 h
[1] = tested on: 786-0 renal
[2] = tested on: A498 renal
[3] = tested on: A549 NSCLC
[4] = tested on: ACHN renal
[5] = tested on: BT-549 breast
[6] = tested on: CAKI-1 renal
[7] = tested on: CCRF-CEM leukemia
[8] = tested on: COLO 205 colon
[9] = tested on: DU-145 prostate
[10] = tested on: EKVX NSCLC
[11] = tested on: HCC-2998 colon
[12] = tested on: HCT-116 colon
[13] = tested on: HCT-15 colon
[14] = tested on: HOP-62 NSCLC
[15] = tested on: HOP-92 NSCLC
[16] = tested on: HS 578T breast
[17] = tested on: HT29 colon
[18] = tested on: IGROV1 ovarian
[19] = tested on: K-562 leukemia
[20] = tested on: KM12 colon
[21] = tested on: LOX IMVI melanoma
[22] = tested on: M14 melanoma
[23] = tested on: MALME-3M melanoma
[24] = tested on: MCF7 breast
[25] = tested on: MDA-MB-231 breast
[26] = tested on: MDA-MB-435
[27] = tested on: MDA-MB-468 breast
[28] = tested on: MOLT-4 leukemia
[29] = tested on: NCI-H226 lung
[30] = tested on: NCI-H23 lung
[31] = tested on: NCI-H460 lung
[32] = tested on: NCI-H522 lung
[33] = tested on: OVCAR-3 ovarian
[34] = tested on: OVCAR-4 ovarian
[35] = tested on: OVCAR-5 ovarian
[36] = tested on: PC-3 prostate
[37] = tested on: RPMI-8226 leukemia
[38] = tested on: RXF 393 renal
[39] = tested on: SF-268 CNS
[40] = tested on: SF-295 CNS
[41] = tested on: SF-539 CNS
[42] = tested on: SK-MEL-2 melanoma
[43] = tested on: SK-MEL-28 melanoma
[44] = tested on: SK-MEL-5 melanoma
[45] = tested on: SK-OV-3 ovarian
[46] = tested on: SN12C renal
[47] = tested on: SNB-19 CNS
[48] = tested on: SNB-75 CNS
[49] = tested on: SR leukemia
[50] = tested on: SW-620 colon
[51] = tested on: T-47D breast
[52] = tested on: TK-10 renal
[53] = tested on: U251 CNS
[54] = tested on: UACC-257 melanoma
[55] = tested on: UACC-62 melanoma
[56] = tested on: UO-31 renal

In the case of `CN(C)c1ccnc(CNCCSC2(c3ccccc3)c3ccccc3C=Cc3ccccc32)c1`, the GI50 [1] is reported as 1620 nM, the TGI [1] is reported as 3.98 µM and the GI50 [2] is reported as 9.97 µM. For the same compound, the TGI [2] was 25.3 µM, the GI50 [3] was 556 nM and the TGI [3] was 5.83 µM. The GI50 [4] was 1440 nM, the TGI [4] was 12.2 µM and the GI50 [5] was 1910 nM. It also gave a TGI [5] of 5 µM, a GI50 [6] of 2290 nM and a TGI [6] of 12.3 µM. For the same compound, the GI50 [7] was 681 nM, the TGI [7] was 11.9 µM and the GI50 [8] was 1610 nM. It also gave a TGI [8] of 3.11 µM, a GI50 [9] of 2850 nM and a TGI [9] of 8.11 µM. For the same compound, the GI50 [10] was 2440 nM, the TGI [10] was 13.9 µM and the GI50 [11] was 1410 nM. The TGI [11] was 2980 nM, the GI50 [12] was 526 nM and the TGI [12] was 2100 nM. The GI50 [13] was 520 nM, the TGI [13] was 11.4 µM and the GI50 [14] was 2160 nM. For the same compound, the TGI [14] was 8.1 µM, the GI50 [15] was 1250 nM and the TGI [15] was 5.18 µM. For the same compound, the GI50 [16] was 1990 nM, the TGI [16] was 5.92 µM and the GI50 [17] was 1690 nM. For the same compound, the TGI [17] was 3.92 µM, the GI50 [18] was 2940 nM and the TGI [18] was 17.1 µM. For the same compound, the GI50 [19] was 380 nM, the TGI [19] was over 100 µM and the GI50 [20] was 1440 nM. It also gave a TGI [20] of 3.24 µM, a GI50 [21] of 1430 nM and a TGI [21] of 2770 nM. The GI50 [22] was 710 nM, the TGI [22] was 2500 nM and the GI50 [23] was 1540 nM. For the same compound, the TGI [23] was 3.16 µM, the GI50 [24] was 419 nM and the TGI [24] was 2390 nM. It also gave a GI50 [25] of 1460 nM, a TGI [25] of 3.63 µM and a GI50 [26] of 215 nM. For the same compound, the TGI [26] was 495 nM, the GI50 [27] was 460 nM and the TGI [27] was 2060 nM. The GI50 [28] was 2490 nM, the TGI [28] was 12.4 µM and the GI50 [29] was 2460 nM. It also gave a TGI [29] of 8.8 µM, a GI50 [30] of 2570 nM and a TGI [30] of 7.46 µM. The GI50 [31] was 1610 nM, the TGI [31] was 3.13 µM and the GI50 [32] was 1400 nM. It also gave a TGI [32] of 3.36 µM, a GI50 [33] of 1730 nM and a TGI [33] of 4.87 µM. The GI50 [34] was 3.56 µM, the TGI [34] was 16 µM and the GI50 [35] was 2450 nM. The TGI [35] was 7.64 µM, the GI50 [36] was 1310 nM and the TGI [36] was 6.91 µM. It also gave a GI50 [37] of 1620 nM, a TGI [37] of 5.44 µM and a GI50 [38] of 1250 nM. For the same compound, the TGI [38] was 4.5 µM, the GI50 [39] was 1860 nM and the TGI [39] was 7.62 µM. It also gave a GI50 [40] of 1800 nM, a TGI [40] of 5.18 µM and a GI50 [41] of 1470 nM. It also gave a TGI [41] of 2830 nM, a GI50 [42] of 2200 nM and a TGI [42] of 4.89 µM. The GI50 [43] was 2020 nM, the TGI [43] was 4.11 µM and the GI50 [44] was 1460 nM. For the same compound, the TGI [44] was 2780 nM, the GI50 [45] was 2800 nM and the TGI [45] was 9.04 µM. For the same compound, the GI50 [46] was 1390 nM, the TGI [46] was 6.53 µM and the GI50 [47] was 3.75 µM. The TGI [47] was 15.2 µM, the GI50 [48] was 1560 nM and the TGI [48] was 6.29 µM. For the same compound, the GI50 [49] was 798 nM, the TGI [49] was 5.04 µM and the GI50 [50] was 579 nM. For the same compound, the TGI [50] was 2260 nM, the GI50 [51] was 2480 nM and the TGI [51] was 9.26 µM. The GI50 [52] was 3.09 µM, the TGI [52] was 14.8 µM and the GI50 [53] was 380 nM. The TGI [53] was 1600 nM, the GI50 [54] was 1790 nM and the TGI [54] was 4.18 µM. For the same compound, the GI50 [55] was 2170 nM, the TGI [55] was 5.39 µM and the GI50 [56] was 2160 nM. The TGI [56] was 11.4 µM.

Source: PubChem BioAssay (NCI)
